Measurements from patent publication US4323547A, “Labeled fatty acids and method of making and using same” (priority 1978, dated 1982).

Tests used:
heart muscle = experiment: Heart muscle uptake and elimination of radiolabelled fatty acids after tail vein injection in mice; type: in vivo, NMRI mice
Procedure: (§1) Animal experiments with mice were carried out using the product resulting from the high pressure liquid chromatographic purification after evaporation of the eluate to dryness in a rotary evaporator and the dissolution of the product in human serum albumin. The solution is filtered and injected in aliquot portions to the tail vein of each animal.
(§2) The following table assembles the results of comparative tests with the compounds of the invention and prior art compounds: […]

[1] = as above; type: in vivo, NMRI mice; settings: mouse, in vivo, iv; for tissue uptake at 2 min: NMRI mice, tail vein injection in human serum albumin, read-out: maximum 18F activity in the heart muscle
Procedure: as §1, §2

[2] = NMRI mice, tail vein injection in human serum albumin
[3] = comparative tests, table 2, heart

Max. Enrichment in % of Injected Dose per Heart (heart muscle; mouse, in vivo)	Elimination Half-time, rapid elimination (heart muscle; mouse, in vivo, iv)	Elimination Half-time, slow elimination (heart muscle; mouse, in vivo, iv)	Time to Max. Enrichment (heart muscle; mouse, in vivo, iv)	Compound	tissue uptake at 2 min [1]	tissue uptake ([1]; general description, read-out: maximum pickup in heart muscle)	dropoff of heart activity, long-duration component (heart muscle; [2])	dropoff of heart activity, short-duration component (heart muscle; [2])	time within which the activity reaches a maximum in heart muscle (heart muscle; [2])	Max. Enrichment in % of Injected Dose per Heart (heart muscle; comparative tests, table 2)	Elimination Half-time, rapid elimination (heart muscle; [3])	Elimination Half-time, slow elimination (heart muscle; [3])	Time to Max. Enrichment (heart muscle; [3])	maximum 18F activity in the heart muscle (heart muscle; NMRI mice, tail vein injection in human serum albumin, 2 min)
1.47 ± 0.3 % of Injected Dose per Heart	1 ± 0.2 min	18 ± 3.6 min	1 min	CCCCCCCCCCCCCCCCC([77Br])C(=O)O (stereo not shown) [2-^77 Br-Stearic acid]	–	–	–	–	–	–	–	–	–	–
2.03 ± 0.1 % of Injected Dose per Heart	0.9 ± 0.2 min	9 ± 1.8 min	1 min	CCCCCCCCCCCCCCCCC([34Cl])C(=O)O (stereo not shown) [2-^34m Cl-Stearic acid]	–	–	–	–	–	–	–	–	–	–
3.97 ± 0.4 % of Injected Dose per Heart	2.1 ± 0.4 min	25 ± 5.0 min	0.25 min	O=C(O)CCCCCCCCCCCCCCCC[123I] [17-^123 I-Heptadecanoic acid]	–	–	–	–	–	–	–	–	–	–
–	–	–	–	O=C(O)CCCCCCCCCCCCCCCC[18F] [17-^18 F-Heptadecanoic acid]	~40 %ID/g	~40 %ID/g	eighteen to fifty-one	two to six	two	4.812 ± 0.8 % of Injected Dose per Heart	6 ± 1.5 min	18 ± 6 min	0.5 min	–
–	0.4 ± 0.1 min	–	–	CCCCCCCCCCCCCCC[11C](=O)O [1-[^11 C] Palmitic acid]	–	–	–	–	–	3.87 ± 1.0 % of Injected Dose per Heart	–	33 ± 6.5 min	0.25 min	–
–	–	–	–	O=C(O)CCCCCCCCCCCCCCC[18F] [16-^18 F-Palmitic acid, 16-^18 F hexadecanoic acid]	~40 %ID/g	–	eighteen to fifty-one	two to six	two	4.35 ± 1.3 % of Injected Dose per Heart	3 ± 0.8 min	44 ± 11 min	0.25 min	–
3.36 ± 0.4 % of Injected Dose per Heart	2.4 ± 0.5 min	33 ± 6.6 min	0.5 min	O=C(O)CCCCCCCCCCCCCCC[123I] [16-^123 I-Palmitic acid]	–	–	–	–	–	–	–	–	–	–
–	–	–	–	CCCCCCCCCCCCCCCCC([18F])C(=O)O (stereo not shown) [2-^18 F-Stearic acid]	–	–	–	–	–	1.34 ± 0.1 % of Injected Dose per Heart	0.5 ± 0.1 min	5 ± 1.5 min	1 min	–
–	–	–	–	(9/10)-^18 F-stearic acid [9/10-^18 F-Stearic acid]	–	–	eighteen to fifty-one	two to six	two	4.25 ± 0.9 % of Injected Dose per Heart	4 ± 1 min	24 ± 7 min	0.5 min	about 40 % gram (heart)
2.210 ± 0.6 % of Injected Dose per Heart	0.6 ± 0.1 min	36 ± 7.2 min	0.5 min	O=C(O)CCCCCCCCCCCCCCCC[77Br] [17-^77 Br-Heptadecanoic acid]	–	–	–	–	–	–	–	–	–	–
–	–	–	–	O=C(O)CCCCCCCCCCCCCCCC[34Cl] [17-^34m Cl-Heptadecanoic acid]	–	–	–	–	–	2.16 ± 0.6 % of Injected Dose per Heart	0.9 ± 0.2 min	23 ± 4.7 min	0.25 min	–
1.411 ± 0.1 % of Injected Dose per Heart	2 ± 0.4 min	13 ± 2.7 min	0.5 to 1 min	CCCCCCCCCCCCCCCCC([123I])C(=O)O (stereo not shown) [2-^123 I-Stearic acid]	–	–	–	–	–	–	–	–	–	–
